# Assay results as given in publication PMC4773067 (PLoS ONE, 2016).
# Entries after “also recorded” stand apart in the source; their conditions may differ.
# Assays:
# [1] = tested on: hSR-transfected CHO-K1 cells; test: Agonist cAMP response (HTRF-LANCE cAMP assay); assay type: cell-based, human; conditions: for Agonistic response: Table 4, cAMP response at various doses
# Description: The cAMP responses in hSR-transfected CHO-K1 cells were detected using the HTRF-LANCE® cAMP assay kit. After 48 h of transfection, the cells were detached by nonenzymatic treatment using Versene. The cells were counted and processed according to the manufacturer’s instructions to measure the cAMP response following cell treatment with the secretin analogs. hSCT was used as a positive control. The TRF signals (340 nm excitation/665 nm emission) were detected using a VICTOR X4 spectrofluorometer (PerkinElmer), and the cAMP concentration was determined using a standard curve.
# (§1) All in vitro results were analyzed in quadruplicate, and the data are expressed as the means ± SEM. Significant differences were identified using Student’s t-test at p<0.05. The dose response was analyzed using GraphPad Prism 5.0 software with a variable slope (four parameters).
# [2] = tested on: hSR-transfected CHO-K1 cells; test: Antagonist cAMP response (coincubation with hSCT, HTRF-LANCE cAMP assay); assay type: cell-based, human; conditions: Table 4; cAMP response with 5 nM hSCT plus analog 10^-12 to 10^-6 M, 30 min
# Description: Detection was subsequently performed according to the manufacturer’s instructions.
# as §1
# [3] = target: SNAPtag-hSR (human secretin receptor) in transfected CHO-K1 cells (Homo sapiens, UniProt P47872); test: FRET competitive binding assay
# Chain of SNAPtag-hSR (human secretin receptor) in transfected CHO-K1 cells (P47872 23-440): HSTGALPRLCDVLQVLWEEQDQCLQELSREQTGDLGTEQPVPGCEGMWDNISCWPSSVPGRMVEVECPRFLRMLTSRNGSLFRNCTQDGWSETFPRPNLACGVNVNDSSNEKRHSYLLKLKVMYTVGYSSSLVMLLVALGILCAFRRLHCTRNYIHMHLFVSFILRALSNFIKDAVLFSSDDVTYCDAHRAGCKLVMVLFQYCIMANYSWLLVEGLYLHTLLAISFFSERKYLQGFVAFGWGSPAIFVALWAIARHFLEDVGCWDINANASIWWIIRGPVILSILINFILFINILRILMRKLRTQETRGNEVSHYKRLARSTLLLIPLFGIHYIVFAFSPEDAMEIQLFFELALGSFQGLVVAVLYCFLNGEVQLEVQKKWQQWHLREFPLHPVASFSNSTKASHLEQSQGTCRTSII
# [4] = target: human secretin receptor (human) (UniProt P47872); test: FRET or BRET; competitive binding, dose response 10^-12 M to 10^-4 M of unlabelled peptide against 500 nM labelled hSCT on CHO-K1 cells with Lumi4-Tb-labelled SNAPtag-hSR, 4–8°C, 1 h; nonspecific signal with 100 μM unlabelled hSCT subtracted; four-parameter fit
# Chain of human secretin receptor (human) (P47872 23-440): as above
in vitro binding to hSR (in words) [3],IC50 [4],Molecule,Agonistic response [1],Antagonistic response [2],"agonist activity at hSR, cAMP (in words) [1]"
–,–,"H2N-Ala-Ser-Asp-Gly-Thr-Phe-Thr-Ser-Glu-Leu-Ser-Arg-Leu-Arg-Glu-Gly-Ala-Arg-Leu-Gln-Arg-Leu-Leu-Gln-Gly-Leu-Val- COOH [Analog 2, h[Ala^1]SCT]",Absent,Absent,–
–,–,"H2N-His-Val-Asp-Gly-Leu-Phe-Thr-Ser-Glu-Leu-Ser-Lys-Leu-Arg-Gly-Ser-Ala-Val-Ala-Arg-Ser-Phe-Thr-Asn-Ala-Val-Leu- COOH [Analog 18, Coelacanths SCT]",Absent,Absent,–
–,–,"CC(C)C[C@H](NC(=O)CNC(=O)[C@H](CCC(N)=O)NC(=O)[C@H](CC(C)C)NC(=O)[C@H](CC(C)C)NC(=O)[C@H](CCCNC(=N)N)NC(=O)[C@H](CCC(N)=O)NC(=O)[C@H](CC(C)C)NC(=O)[C@H](CCCNC(=N)N)NC(=O)[C@H](C)NC(=O)CNC(=O)[C@H](CCC(=O)O)NC(=O)[C@H](CCCNC(=N)N)NC(=O)[C@H](CC(C)C)NC(=O)[C@H](CCCNC(=N)N)NC(=O)[C@H](CO)NC(=O)[C@H](CC(C)C)NC(=O)[C@H](CCC(=O)O)NC(=O)[C@H](CO)NC(=O)[C@@H](NC(=O)[C@H](Cc1ccccc1)NC(=O)[C@@H](NC(=O)CNC(=O)[C@H](CC(=O)O)NC(=O)[C@H](CO)NC(=O)[C@@H](N)Cc1c[nH]cn1)[C@@H](C)O)[C@@H](C)O)C(=O)N[C@H](C(=O)O)C(C)C [hSCT, human secretin, reference compound]",Present,Absent,–
–,–,"H2N-Cit-Ser-Asp-Gly-Thr-Phe-Thr-Ser-Glu-Leu-Ser-Arg-Leu-Arg-Glu-Gly-Ala-Arg-Leu-Gln-Arg-Leu-Leu-Gln-Gly-Leu-Val- COOH [Analog 10, h[Cit^1]SCT]",Absent,Absent,–
only at high concentrations,–,"human pituitary adenylate cyclase-activating polypeptide [hPACAP, reference compound]",–,–,could also activate hSR to produce cAMP; also recorded: only at high concentrations
–,–,"H2N-Leu-Ser-Asp-Gly-Thr-Phe-Thr-Ser-Glu-Leu-Ser-Arg-Leu-Arg-Glu-Gly-Ala-Arg-Leu-Gln-Arg-Leu-Leu-Gln-Gly-Leu-Val- COOH [Analog 3, h[Leu^1]SCT]",Absent,Absent,–
–,–,"H2N-His-Ser-Asp-Cha-Thr-Phe-Thr-Ser-Glu-Leu-Ser-Arg-Leu-Arg-Glu-Gly-Ala-Arg-Leu-Gln-Arg-Leu-Leu-Gln-Gly-Leu-Val- COOH [Analog 7, h[Cha^4]SCT]",Absent,Absent,–
–,–,"H2N-His-Pro-Asp-Gly-Thr-Phe-Thr-Ser-Glu-Leu-Ser-Arg-Leu-Arg-Glu-Gly-Ala-Arg-Leu-Gln-Arg-Leu-Leu-Gln-Gly-Leu-Val- COOH [Analog 1, h[Pro^2]SCT]",Absent,Absent,–
–,–,"H2N-His-Ser-D-Asp-Gly-Thr-Phe-Thr-Ser-Glu-Leu-Ser-Arg-Leu-Arg-Glu-Gly-Ala-Arg-Leu-Gln-Arg-Leu-Leu-Gln-Gly-Leu-Val- COOH [Analog 8, h[D-Asp^3]SCT]",Absent,Absent,–
–,–,"H2N-His-Ser-Asp-p-Cl,D-Phe^4-Thr-Phe-Thr-Ser-Glu-Leu-Ser-Arg-Leu-Arg-Glu-Gly-Ala-Arg-Leu-Gln-Arg-Leu-Leu-Gln-Gly-Leu-Val- COOH [Analog 4, h[(p-Cl,D-Phe^4]SCT]",Absent,Absent,–
–,–,"CC(C)C[C@H](NC(=O)CNC(=O)[C@H](CCC(N)=O)NC(=O)[C@H](CC(C)C)NC(=O)[C@H](CC(C)C)NC(=O)[C@H](CCCNC(=N)N)NC(=O)[C@H](CCC(N)=O)NC(=O)[C@H](CC(C)C)NC(=O)[C@H](CCCNC(=N)N)NC(=O)[C@H](C)NC(=O)[C@H](CO)NC(=O)[C@H](CC(=O)O)NC(=O)[C@H](CCC(N)=O)NC(=O)[C@H](CC(C)C)NC(=O)[C@H](CCCNC(=N)N)NC(=O)[C@H](CO)NC(=O)[C@H](CC(C)C)NC(=O)[C@H](CCC(=O)O)NC(=O)[C@H](CO)NC(=O)[C@@H](NC(=O)[C@H](Cc1ccccc1)NC(=O)[C@@H](NC(=O)CNC(=O)[C@H](CC(=O)O)NC(=O)[C@H](CO)NC(=O)[C@@H](N)Cc1c[nH]cn1)[C@@H](C)O)[C@@H](C)O)C(=O)N[C@H](C(=O)O)C(C)C [Analog 15, Rat SCT]",Present,Absent,agonist
–,–,"H2N-His-Ser-Asp-D-allyl,Gly-Thr-Phe-Thr-Ser-Glu-Leu-Ser-Arg-Leu-Arg-Glu-Gly-Ala-Arg-Leu-Gln-Arg-Leu-Leu-Gln-Gly-Leu-Val- COOH [Analog 5, h[(D-allyl,Gly^4]SCT]",Absent,Absent,–
–,–,"H2N-His-Ser-pCO2HPhe-Gly-Thr-Phe-Thr-Ser-Glu-Leu-Ser-Arg-Leu-Arg-Glu-Gly-Ala-Arg-Leu-Gln-Arg-Leu-Leu-Gln-Gly-Leu-Val- COOH [Analog 11, h[pCO2H-Phe^3]SCT]",Absent,Absent,–
–,–,"human vasoactive peptide [hVIP, reference compound]",–,–,could also activate hSR to produce cAMP; also recorded: only at high concentrations
–,–,"H2N-His-Val-Asp-Gly-Arg-Phe-Thr-Ser-Glu-Phe-Ser-Arg-Ala-Arg-Gly-Ser-Ala-Ala-Ile-Arg-Lys-Ile-Ile-Asn-Ser-Ala-Leu-Ala- COOH [Analog 16, Xenopus SCT]",Absent,Absent,–
–,–,"H2N-Phe-Thr-Ser-Glu-Leu-Ser-Arg-Leu-Arg-Glu-Gly-Ala-Arg-Leu-Gln-Arg-Leu-Leu-Gln-Gly-Leu-Val- COOH [Analog 6, hSCT(6–27)]",Absent,Absent,–
–,–,"H2N-His-Ser-Asp-Gly-Leu-Phe-Thr-Ser-Glu-Tyr-Ser-Lys-Met-Arg-Gly-Asn-Ala-Gln-Val-Gln-Lys-Phe-Ile-Gln-Asn-Leu-Met- COOH [Analog 17, Chicken SCT]",Absent,Absent,–
–,–,"H2N-Tic-Ser-Asp-Gly-Thr-Phe-Thr-Ser-Glu-Leu-Ser-Arg-Leu-Arg-Glu-Gly-Ala-Arg-Leu-Gln-Arg-Leu-Leu-Gln-Gly-Leu-Val- COOH [Analog 9, h[Tic^1]SCT]",Absent,Absent,–
–,–,"H2N-Orn-Ser-Asp-Gly-Thr-Phe-Thr-Ser-Glu-Leu-Ser-Arg-Leu-Arg-Glu-Gly-Ala-Arg-Leu-Gln-Arg-Leu-Leu-Gln-Gly-Leu-Val- COOH [Analog 12, h[Orn^1]SCT]",Absent,Absent,–
–,–,"H2N-His-Ser-Asp-Pro-Thr-Phe-Thr-Ser-Glu-Leu-Ser-Arg-Leu-Arg-Glu-Gly-Ala-Arg-Leu-Gln-Arg-Leu-Leu-Gln-Gly-Leu-Val- COOH [Analog 13, h[Pro^4]SCT]",Absent,Absent,–
–,–,"H2N-His-Ser-Asp-Tyr-Thr-Phe-Thr-Ser-Glu-Leu-Ser-Arg-Leu-Arg-Glu-Gly-Ala-Arg-Leu-Gln-Arg-Leu-Leu-Gln-Gly-Leu-Val- COOH [Analog 14, h[Tyr^4]SCT]",Absent,Absent,–
–,–,"H2N-His-Ser-Asp-Gly-Thr-Phe-Thr-Ser-Glu-Leu-Ser-Arg-Leu- COOH [Analog 19, Nt-SCT]",Absent,Absent,–
–,–,"H2N-Arg-Glu-Gly-Ala-Arg-Leu-Gln-Arg-Leu-Leu-Gln-Gly-Leu-Val- COOH [Analog 20, Ct-SCT]",Absent,Absent,–
–,1.63 nM,human secretin (peptide),–,–,–
